± gives the expanded uncertainty stated by the source.
Tests used:
[1] = molar heat capacity at constant pressure; settings: 101.33 kPa, Liquid, Small sample (50 mg) DSC
[2] = for mass density / viscosity: 101.33 kPa, Liquid; for mass density: Vibrating tube method

CCCCCCCC[n+]1ccc2ccccc2c1.N#C[S-] [2-octylisoquinolinium thiocyanate]
Settings	mass density, [2] [kg/m3]	molar heat capacity at constant pressure, [1] [J/K/mol]	viscosity, [2] [mPa·s]
278.15 K	–	510 ± 17	–
283.15 K	–	513 ± 17	–
288.15 K	1067.27 ± 2.2	516 ± 17	–
293.15 K	1064.44 ± 2.2	519 ± 17	–
298.15 K	1061.69 ± 2.1	522 ± 17	2388 ± 36
303.15 K	1058.82 ± 2.1	525 ± 17	1612.1 ± 24
308.15 K	1055.96 ± 2.1	528 ± 18	1109.5 ± 17
313.15 K	1053.11 ± 2.1	531 ± 18	743.87 ± 11
318.15 K	1050.26 ± 2.1	533 ± 18	513.78 ± 7.8
323.15 K	1047.42 ± 2.1	535 ± 18	365.48 ± 5.5
328.15 K	1044.57 ± 2.1	537 ± 18	266.77 ± 4
333.15 K	1041.72 ± 2.1	538 ± 18	199.26 ± 3
338.15 K	1038.94 ± 2	540 ± 18	152.21 ± 2.3
343.15 K	1036.2 ± 2	540 ± 18	118.51 ± 1.8
348.15 K	1033.47 ± 2	–	93.83 ± 1.4

Settings	Glass transition temperature [°C]
[2], Glass, DTA	-57.0 ± 3
